From patent US20080139655A1, “SUSTAINED-RELEASE COMPOSITION AND METHOD OF USE THEREOF” (DrugTech Corporation, priority 2006, published 2008)

What was measured:
[1] = Dissolution testing of tablet formulations A and B (USP apparatus II with paddles, 50 rpm, 900 ml 0.1N HCl); type: physicochemical; settings: USP apparatus II paddles 50 rpm, typical range for both formulations
Experimental: Tablet formulations A and B prepared as above are subjected to dissolution testing for both levodopa and carbidopa (USP apparatus II with paddles, 50 rpm, dissolution medium 900 ml 0.1N HCl) over a 12 hour period.

[2] = approximately; background statement; cited from earlier work

| % Dissolved ([1]; time 1 h) | % Dissolved ([1]; time 2 h) | % Dissolved ([1]; time 4 h) | % Dissolved ([1]; time 8 h) | % Dissolved ([1]; time 12 h) | Structure (SMILES) | half-life [2] [min] |
| --- | --- | --- | --- | --- | --- | --- |
| 15-25% | 25-40% | 40-70% | 65-80% | 80-95% | C[C@@](Cc1ccc(O)c(O)c1)(NN)C(=O)O [carbidopa] | – |
| 15-25% | 25-40% | 40-70% | 65-80% | 80-95% | N[C@@H](Cc1ccc(O)c(O)c1)C(=O)O [levodopa, 3,4-dihydroxy-L-phenylalanine] | 45 to 90 |
